Results on ten compounds are retold here after ChEMBL document CHEMBL1201862, “PubChem BioAssay data set” (2004).

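Cultured in 96-well plates, cells were exposed to test compound for 48 hours across five concentrations. Here, GI50 denotes the concentration required for 50% inhibition of growth.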 The source made the active and inactive calls. Rule as the data show it: active = GI50 up to about 1.1 µM and inactive = higher. A value given as a limit tells only on which side of the number the result lay.

The GI50 is the concentration giving 50% growth inhibition.

Some test systems named below: HCT-15; U-251; UACC-257; MCF7; HCC 2998; MDA-MB-231; A498; K562; Hs-578T; MOLT-4; SR; SK-MEL-5; IGROV-1; ACHN; CCRF-CEM; NCI-H226; UACC-62; M14; OVCAR-5; TK-10.
Experiment in all cases: DTP human tumour cell line panel, 48 h

In the case of `COC(=O)C(CCCCN)NC(=O)C(CCCCN)NC(C)=O.Cc1ccc(C(=O)Nc2ccc(S(=O)(=O)O)c3cc(S(=O)(=O)O)cc(S(=O)(=O)O)c23)cc1NC(=O)c1cccc(NC(=O)Nc2cccc(C(=O)Nc3cc(C(=O)Nc4ccc(S(=O)(=O)O)c5cc(S(=O)(=O)O)cc(S(=O)(=O)O)c45)ccc3C)c2)c1`, the GI50 in the test on HCT-15 is over 50 µM; in the test with U-251, > 50 µM (inactive); with UACC-257, > 50 µM (inactive); in the test on MCF7, > 50 µM (inactive); with HCC 2998, > 50 µM (inactive); in the test on MDA-MB-231 it was 16.2 µM (inactive). Also, the GI50 in the test with A498 was > 50 µM (inactive); with K562, > 50 µM (inactive); in the test on Hs-578T, 39.1 µM (inactive); in the test with MOLT-4, > 50 µM (inactive); in the test on SR, > 50 µM (inactive); with SK-MEL-5 it was > 50 µM (inactive). In addition, the GI50 is > 50 µM (inactive) with IGROV-1; > 50 µM (inactive) in the test on ACHN; > 50 µM (inactive) in the test on CCRF-CEM; > 50 µM (inactive) with NCI-H226; > 50 µM (inactive) with UACC-62; 10.6 µM (inactive) with M14.
Regarding `C=[N+](CNC(=O)CNC(=O)C(Cc1ccccc1)NC(=O)OC(C)(C)C)C(=O)CNC(=O)C(Cc1ccccc1)NC(=O)OC(C)(C)C` (stereo unspecified), the GI50 in the test with HCT-15 is over 100 µM; in the test with UACC-257, > 100 µM (inactive); in the test with MCF7 it was > 100 µM (inactive); in the test on HCC 2998, > 100 µM (inactive); with MDA-MB-231, > 100 µM (inactive); with A498 it was > 100 µM (inactive). Moreover, the GI50 in the test with K562, in the test on Hs-578T, in the test with OVCAR-5, in the test with MOLT-4, in the test with SR and with SK-MEL-5 was > 100 µM (inactive) throughout. The GI50 in the test with IGROV-1, in the test with ACHN, with CCRF-CEM, in the test with NCI-H226, in the test with UACC-62 and in the test with M14 was > 100 µM (inactive) in each case.
For the compound `CC1OC(OC2C(OC3CCC4(C)C(CCC5(C)C4CC=C4C6CC(C)(C)CCC6(C(=O)O)CCC45C)C3(C)CO)OCC(O)C2O)C(O)C(O)C1O` (stereo unspecified), the GI50 was 20.9 µM with HCT-15; 21.9 µM (inactive) with U-251; 20 µM (inactive) with TK-10; 18.5 µM (inactive) in the test with UACC-257; 0.46 µM (active) with MCF7; 13.4 µM (inactive) with HCC 2998. Besides, the GI50 in the test on MDA-MB-231 is 17.9 µM (inactive); in the test on A498, 14.2 µM (inactive); with K562 it was 11.6 µM (inactive); in the test on Hs-578T, 14.1 µM (inactive); with OVCAR-5 it was 19.8 µM (inactive); in the test with MOLT-4 it was 14.6 µM (inactive). Moreover, the GI50 was 3.33 µM (inactive) with SR; 17.8 µM (inactive) in the test on SK-MEL-5; 15.6 µM (inactive) in the test with IGROV-1; 19 µM (inactive) with ACHN; 4.68 µM (inactive) with CCRF-CEM; 21.2 µM (inactive) in the test with NCI-H226. Also, in the test with UACC-62, the GI50 was 8.05 µM (inactive).
As for `COC(=O)C1(C)CCc2c(ccc3ccccc23)C1=O` (stereo unspecified), the GI50 in the test with HCT-15 was 34.5 µM; with U-251 it was 46.5 µM (inactive); in the test on TK-10 it was 31 µM (inactive); in the test on UACC-257 it was 24.5 µM (inactive); in the test on MCF7 it was 30.6 µM (inactive); in the test with HCC 2998 it was 36.1 µM (inactive). Also, the GI50 with MDA-MB-231 is 49.1 µM (inactive); in the test on A498, 32.7 µM (inactive); with K562 it was 52.4 µM (inactive); with Hs-578T it was 47.2 µM (inactive); in the test with OVCAR-5, > 100 µM (inactive); in the test on MOLT-4, 34.8 µM (inactive). Besides, the GI50 in the test on SR is 39.4 µM (inactive); in the test on SK-MEL-5, 18.3 µM (inactive); in the test on IGROV-1, 26.5 µM (inactive); in the test on ACHN it was 55.1 µM (inactive); with CCRF-CEM, 37.3 µM (inactive); in the test with UACC-62 it was 32.4 µM (inactive). For the same compound, the GI50 in the test on M14 is 29.9 µM (inactive).
With `CC(NC(=O)OC(C)(C)C)C(=O)C(N)=O` (stereo unspecified), the GI50 is over 100 µM in the test with HCT-15; > 100 µM (inactive) in the test on U-251; > 100 µM (inactive) in the test with TK-10; > 100 µM (inactive) in the test on MCF7; > 100 µM (inactive) in the test on HCC 2998; > 100 µM (inactive) with MDA-MB-231. In addition, the GI50 was > 100 µM (inactive) with A498; > 100 µM (inactive) with K562; > 100 µM (inactive) in the test with Hs-578T; > 100 µM (inactive) in the test on OVCAR-5; > 100 µM (inactive) in the test with MOLT-4; 38.6 µM (inactive) in the test on SR. In addition, the GI50 in the test with SK-MEL-5, in the test with ACHN, in the test with CCRF-CEM, with NCI-H226 and in the test with M14 was > 100 µM (inactive) in each case.
As for `CSc1nc2c3ccccc3ccn2c1C(=O)N/N=C/c1ccccc1`, the GI50 with HCT-15 was over 100 µM; with U-251, 15.8 µM (inactive); in the test on UACC-257, > 100 µM (inactive); with MCF7, > 46.3 µM (inactive); with HCC 2998 it was > 100 µM (inactive); with MDA-MB-231, 18.1 µM (inactive). Besides, the GI50 in the test on A498 was 31.5 µM (inactive); in the test with K562, > 100 µM (inactive); with Hs-578T, 30.8 µM (inactive); with OVCAR-5, > 75.5 µM (inactive); with MOLT-4 it was > 100 µM (inactive); in the test on SR, 41.9 µM (inactive). Moreover, the GI50 in the test with SK-MEL-5 was > 74.8 µM (inactive); with IGROV-1 it was 33.7 µM (inactive); with ACHN, 9.06 µM (inactive); in the test with CCRF-CEM, > 100 µM (inactive); with NCI-H226, 36 µM (inactive); with UACC-62, > 100 µM (inactive). In the test on M14, the GI50 was > 100 µM (inactive).
Regarding `Cc1ccc2c(sc(-c3ccc4c(c3)sc(-c3ccc(N(C)C)cc3)[n+]4C)[n+]2C)c1S(=O)(=O)O.Cc1ccc2c(sc(-c3ccc4c(c3)sc(-c3ccc5c(c3)sc(-c3ccc(N(C)C)cc3)[n+]5C)[n+]4C)[n+]2C)c1S(=O)(=O)O`, the GI50 in the test on HCT-15 was 66.1 µM; in the test with U-251, > 100 µM (inactive); in the test with TK-10, > 100 µM (inactive); with UACC-257, > 100 µM (inactive); with MCF7 it was > 100 µM (inactive); with HCC 2998, > 100 µM (inactive). The GI50 was 22 µM (inactive) in the test with MDA-MB-231; > 100 µM (inactive) in the test on A498; 35.5 µM (inactive) in the test with K562; 72.4 µM (inactive) in the test with Hs-578T; > 100 µM (inactive) in the test with OVCAR-5; 51.9 µM (inactive) in the test on MOLT-4. For the same compound, the GI50 in the test with SR was 1 µM (active); with SK-MEL-5, > 100 µM (inactive); in the test on IGROV-1 it was 9.79 µM (inactive); in the test on ACHN, 62.7 µM (inactive); in the test on CCRF-CEM, 10 µM (inactive); in the test with UACC-62 it was > 100 µM (inactive). Moreover, the GI50 in the test on M14 is > 100 µM (inactive).
`COc1cc(C2c3[nH]c4ccccc4c3C[C@H]3COC(=O)N23)cc(OC)c1OC` (stereo partly specified): the GI50 in the test on HCT-15 was 0.0471 µM; with U-251, 0.0445 µM (active); with TK-10 it was 5.36 µM (inactive); with UACC-257, 0.0321 µM (active); in the test with MCF7, 0.0406 µM (active); in the test with HCC 2998, 0.131 µM (active). Besides, the GI50 in the test on MDA-MB-231 was 0.815 µM (active); in the test on A498, 0.0745 µM (active); in the test on K562, 0.0349 µM (active); in the test with Hs-578T, 0.0219 µM (active); in the test on OVCAR-5, 0.112 µM (active); in the test on MOLT-4, 0.0966 µM (active). Moreover, the GI50 was 0.0373 µM (active) in the test on SR; 0.0266 µM (active) in the test with SK-MEL-5; 0.214 µM (active) in the test on ACHN; 0.0406 µM (active) with CCRF-CEM; 0.0574 µM (active) in the test on NCI-H226; 0.0348 µM (active) in the test with UACC-62. The GI50 in the test with M14 was 0.0611 µM (active).
`OC1(c2ccc3ccccc3c2)c2ccc3ccccc3c2C2=NCCN21` (stereo unspecified): the GI50 in the test with HCT-15 was over 100 µM; in the test with U-251 it was 45.7 µM (inactive); in the test on TK-10, 28.3 µM (inactive); with UACC-257 it was > 100 µM (inactive); in the test with MCF7, 48.2 µM (inactive); in the test with HCC 2998, 74.1 µM (inactive). Besides, the GI50 was 76.4 µM (inactive) with MDA-MB-231; > 100 µM (inactive) with A498; 45 µM (inactive) with K562; 24.5 µM (inactive) in the test with Hs-578T; > 100 µM (inactive) in the test on OVCAR-5; > 100 µM (inactive) in the test with MOLT-4. Also, the GI50 is 36.8 µM (inactive) in the test on SR; > 100 µM (inactive) in the test on SK-MEL-5; > 100 µM (inactive) in the test on IGROV-1; > 100 µM (inactive) with ACHN; > 100 µM (inactive) in the test on CCRF-CEM; > 100 µM (inactive) in the test with UACC-62. The GI50 in the test on M14 is > 100 µM (inactive).
On to `CC(=O)c1cc2ccccc2oc1=O` [3-ACETYLCOUMARIN], for which the GI50 in the test on HCT-15 is over 100 µM; with U-251 it was > 100 µM (inactive); with TK-10, > 100 µM (inactive); in the test on UACC-257 it was > 100 µM (inactive); in the test with MCF7, 36.2 µM (inactive); in the test on HCC 2998, > 100 µM (inactive). Moreover, the GI50 with MDA-MB-231, in the test on A498, in the test on K562, with Hs-578T, with OVCAR-5 and with MOLT-4 was > 100 µM (inactive) throughout. In addition, the GI50 in the test with SR, in the test on SK-MEL-5, in the test with IGROV-1, in the test on ACHN, with CCRF-CEM and in the test with NCI-H226 was > 100 µM (inactive) each time. Further, the GI50 in the test on M14 was > 100 µM (inactive).
